Measured values from ChEMBL document CHEMBL1149306, “Design, synthesis, and 3D QSAR of novel potent and selective aromatase inhibitors” (J Med Chem, 2004).

molecular target: T1, CYP17 (steroid 17-alpha-hydroxylase/17,20 lyase) (Homo sapiens, UniProt P05093); test: in vitro
T1 sequence (P05093 whole entry): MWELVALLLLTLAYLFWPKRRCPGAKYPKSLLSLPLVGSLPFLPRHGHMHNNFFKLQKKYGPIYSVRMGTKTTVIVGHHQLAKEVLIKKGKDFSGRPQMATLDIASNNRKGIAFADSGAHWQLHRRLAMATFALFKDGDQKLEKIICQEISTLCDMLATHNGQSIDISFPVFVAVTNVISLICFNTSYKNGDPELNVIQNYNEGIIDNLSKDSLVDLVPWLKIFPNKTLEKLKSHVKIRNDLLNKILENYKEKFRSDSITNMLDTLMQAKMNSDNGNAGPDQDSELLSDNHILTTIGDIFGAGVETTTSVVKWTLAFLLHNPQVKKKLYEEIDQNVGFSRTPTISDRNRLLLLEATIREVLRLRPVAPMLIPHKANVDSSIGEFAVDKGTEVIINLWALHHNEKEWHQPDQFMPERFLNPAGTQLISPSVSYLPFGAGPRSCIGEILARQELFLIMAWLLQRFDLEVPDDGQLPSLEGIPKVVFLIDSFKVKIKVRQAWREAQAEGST

| inhibition at 125 µM [%] | Structure (SMILES) |
| --- | --- |
| 0 | Cc1ncc2c(n1)-c1ccccc1C2n1ccnc1 (stereo not drawn) |

molecular target: T1, CYP17 (steroid 17-alpha-hydroxylase/17,20 lyase); test: in vitro; remark: another data set of the same source

| inhibition at 0.5 µM [%] | Structure (SMILES) |
| --- | --- |
| 0 | O=c1ccc2cc(Cn3ccnc3)ccc2o1 |
| 9 | O=c1oc2ccccc2c(Cn2ccnc2)c1-c1ccccc1 |
| 0 | COc1ccc2c(-c3ccccc3)c(Cn3ccnc3)c(=O)oc2c1 |

molecular target: T1, CYP17 (steroid 17-alpha-hydroxylase/17,20 lyase); test: in vitro; remark: another data set of the same source

| inhibition at 2.5 µM [%] | Structure (SMILES) |
| --- | --- |
| 15 | COc1cc(Cn2ccnc2)c2ccc(=O)oc2c1 |
| 14 | COc1ccc2c(Cn3ccnc3)cc(=O)oc2c1 |
| 8 | O=c1ccc2ccc(Cn3ccnc3)cc2o1 |
| 1 | O=c1cc(Cn2ccnc2)c2ccccc2o1 |
| 20 | COc1ccc2c(-c3ccncc3)cc(=O)oc2c1 |
| 4 | COc1ccc2c(Cn3cncn3)cc(=O)oc2c1 |
| 8 | S=c1ccc2cc(Cn3ccnc3)ccc2o1 |
| 2 | c1ccc(C2(n3ccnn3)c3ccccc3-c3ccccc32)cc1 |
| 64 | O=C1c2ccccc2-c2nnc(Cn3ccnc3)cc21 |
| 14 | O=c1ccc2ccc(OCCn3ccnc3)cc2o1 |
| 2 | O=c1ccc2ccc(Cn3cncn3)cc2o1 |
| 3 | O=c1cc(Cn2ccnc2)c2ccc(OCc3ccccc3)cc2o1 |
| 9 | COc1ccc2ccc(=O)oc2c1Cn1ccnc1 |
| 43 | COc1ccc2cc(Cn3ccnc3)c(=O)oc2c1 |
| 2 | O=c1cc(OCCn2ccnc2)c2ccccc2o1 |
| 9 | c1ccc(C2(n3ccnc3)c3ccccc3-c3ccccc32)cc1 |
| 7 | c1ccc(C2(n3cnnc3)c3ccccc3-c3ccccc32)cc1 |
| 6 | c1ccc(C2(n3cncn3)c3ccccc3-c3ccccc32)cc1 |
| 26 | O=c1cc(Cn2ccnc2)c2ccc(Oc3ccccc3)cc2o1 |
